{"source": "patent US5760241A", "about": "“Thiol derivatives with metallopeptidase inhibitory activity” (priority 1996, dated 1998)", "key": {"[1]": {"test_system": "ACE (SHR lungs)", "experiment": "Ex vivo ACE-inhibitory activity in lungs of treated SHR", "set-up": "species or system spontaneously hypertensive rats (SHR)", "conditions": "i.v. 0.64 μmoles/kg, 5 minutes", "method": "(§1) The ex vivo ACE/NEP-inhibitory activity of the compounds of formula I, in particular, was evaluated by considering the enzymatic activity in tissue homogenates (lung and kidney for the ACE- and NEP-inhibitory activity, respectively) from spontaneously hypertensive rats (SHR), treated with the tested compounds by intravenous or oral route.\nb) ACE-inhibitory activity\nThe ex vivo ACE-inhibitory activity was evaluated by using a radiometric assay method, as reported in the literature by J. W. Ryan et al. in Biochem. J. (1977), 167, 501-504.\nThe inhibitory activity of the compounds of formula I was evaluated in lungs of spontaneously hypertensive rats (SHR), 5 minutes after i.v. injection (0.6, 0.64 and 21 μmoles/kg) and 30 minutes, 60 minutes and 4 hours after oral administration (30 μmoles/kg) of the tested compounds.\nAfter the removal of the lungs from SHR, the lung tissue was homogenized and incubated for 2 hours at 37° C. in the presence of [^3 H]Hyp-Gly-Gly, as a substrate.\nThe reaction was stopped by adding hydrochloric acid.\nThe released radiolabelled hyppuric acid was extracted with ethyl acetate and counted by liquid scintillation spectrometry, according to conventional methods.\nThe ACE-inhibitory activity of the tested compounds was expressed as percentage of ACE-inhibition in SHR lungs.\n(§2) As an example, the percentages of basal enzymatic activity obtained in the ex vivo tests after the administration of compounds 29 and 41, as representative compounds of formula I, and of the comparison compounds R-1, R-2, R-3 and R-4 are reported in the following table 2."}, "[2]": {"test_system": "NEP (SHR kidneys)", "experiment": "Ex vivo NEP-inhibitory activity in kidneys of treated SHR", "set-up": "species or system spontaneously hypertensive rats (SHR)", "conditions": "i.v. 0.64 μmoles/kg, 5 minutes", "method": "as §1\n(§3) a) NEP-inhibitory activity\nThe ex vivo NEP-inhibitory activity was evaluated according to the procedure reported in the literature by M. Orlowsky et al., in Biochemistry 1981, 20, 4942-4950.\nThe inhibitory activity of the compounds of formula I was evaluated in kidneys of spontaneously hypertensive rats (SHR), 5 minutes after i.v. injection (0.6, 0.64 and 21 μmoles/kg) and 30 minutes, 60 minutes and 4 hours after oral administration (30 μmoles/kg) of the tested compounds.\nAfter the removal of the kidneys from SHR, the renal tissue was homogenized and incubated for 15 minutes at 37° C. in the presence of Glutaryl-Ala-Ala-Phe-2-naphthylamide (GAAP), as a substrate, and aminopeptidase M at pH 7.6.\nThe reaction was stopped by adding an aqueous solution at 10% of trichloroacetic acid.\nThe released 2-naphthylamine was determined by adding fast garnet dye (2 ml).\nEnzyme reaction rates were determined by measuring the increase in the optical density at 524 nm (OD524) with respect to a standard obtained with 2-naphthylamine complexed with fast garnet.\nThe NEP-inhibitory activity of the tested compounds was expressed as percentage of NEP-inhibition in SHR kidneys.\nas §2"}, "[3]": {"molecular_target": "T1, NEP (membranes from rat kidney cortex) (Rattus norvegicus, UniProt P07861)", "T1 construct": "from tissue; host or cells: kidney cortex membranes of male Sprague-Dawley rats", "T1 sequence (P07861 1-750)": "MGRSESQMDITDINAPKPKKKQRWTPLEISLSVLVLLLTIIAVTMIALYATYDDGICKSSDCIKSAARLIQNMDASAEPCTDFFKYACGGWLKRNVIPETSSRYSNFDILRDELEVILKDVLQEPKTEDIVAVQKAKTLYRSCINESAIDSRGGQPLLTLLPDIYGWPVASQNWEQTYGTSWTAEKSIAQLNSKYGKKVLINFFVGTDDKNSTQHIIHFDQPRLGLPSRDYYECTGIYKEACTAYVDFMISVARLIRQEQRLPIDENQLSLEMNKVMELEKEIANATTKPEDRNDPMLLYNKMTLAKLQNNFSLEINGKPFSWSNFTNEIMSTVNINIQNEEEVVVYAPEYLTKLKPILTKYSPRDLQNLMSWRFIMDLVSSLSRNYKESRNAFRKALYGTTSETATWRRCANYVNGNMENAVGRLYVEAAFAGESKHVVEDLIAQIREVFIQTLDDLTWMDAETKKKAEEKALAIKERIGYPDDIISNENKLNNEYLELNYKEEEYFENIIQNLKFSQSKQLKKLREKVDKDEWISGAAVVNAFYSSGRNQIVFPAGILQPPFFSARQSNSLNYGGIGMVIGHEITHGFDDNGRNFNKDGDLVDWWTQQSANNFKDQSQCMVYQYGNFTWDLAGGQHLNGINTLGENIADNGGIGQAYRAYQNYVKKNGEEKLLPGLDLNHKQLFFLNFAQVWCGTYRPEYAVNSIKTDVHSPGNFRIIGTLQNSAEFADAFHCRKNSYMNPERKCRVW", "experiment": "In vitro NEP-inhibitory activity in rat kidney cortex membranes ([3H][Leu5]-enkephaline substrate)", "type": "biochemical, male Sprague-Dawley rats", "conditions": "20 minutes at 30° C.; [3H][Leu5]-enkephaline 15 nM", "method": "as §3\nThe NEP-inhibitory activity was evaluated in membranes from rat kidney cortex prepared according to the procedure described by T. Maeda et al. in Biochim. Biophys. Acta 1983, 731(1), 115-120.\nBy working at 0°-4° C., kidneys were removed from male Sprague-Dawley rats weighing approximately 300 g.\nCortex was carefully dissected, finely minced and suspended in a homogenization buffer (10 mM sodium phosphate pH 7.4 containing 1 mM MgCl2, 30 mM NaCl, 0.02% NaN3) 1:15 weight/volume.\nThe tissue was then homogenized for 30 seconds using an Ultra-Turrax homogenizer.\nApproximately 10 ml of homogenate were layered over 10 ml of sucrose (41% weight/volume) and centrifuged at 31200 rpm for 30 minutes at 4° C. in a fixed angle rotor. The membranes were collected from the buffer/sucrose interface, washed twice with 50 mM TRIS/HCl buffer (pH 7.4) and resuspended into the same buffer for storage.\nThe membranes were stored in small aliquots at -80° C. until use.\nThe NEP-inhibitory activity was evaluated according to the method described by C. Llorens et al., in Eur. J. Pharmacol., 69, (1981), 113-116, as reported hereinafter.\nAliquots of the membrane suspension prepared as above described (concentration 5 μg/ml of proteins) were preincubated in the presence of an aminopeptidase inhibitory (Bestatin--1 mM) for 10 minutes at 30° C.\n[^3 H][Leu^5 ]-enkephaline (15 nM) and buffer TRIS/HCl pH 7.4 (50 mM) were added in order to obtain a final volume of 100 μl.\nIncubation (20 minutes at 30° C.) was stopped by adding HCl 0.1M (100 μl).\nThe formation of the metabolite [^3 H]Tyr-Gly-Gly was quantified by chromatography on polystyrene columns (Porapak Q)."}}}
{"smiles": "O=C(N[C@@H](Cc1ccc(-c2ccccc2)cc1)C(=O)O)C(CS)Cc1ccccc1", "note": "(stereo partly drawn) [compound 41]", "values": [{"measurement": "ACE-inhibition (lungs), 5 minutes", "setting": "[1]", "value": 49, "unit": "%"}, {"measurement": "NEP-inhibition (kidneys), 5 minutes", "setting": "[2]", "value": 20, "unit": "%"}, {"measurement": "IC50", "setting": "[3]", "value": 5, "unit": "nM"}]}
